≈ marks a conversion by molar mass, not a printed value. Calls of active or inactive are those of the source. The rule behind the calls is not given here.
Legend:
Enterococcus faecalis [1] = assay: Antimicrobial activity against Enterococcus faecalis JH2-2 assessed as inhibition of visible growth of bacteria incubated for 20 hrs by broth microdilution method; format: functional
Enterococcus faecalis [2] = assay: Antimicrobial activity against Enterococcus faecalis J2 harboring erythromycin-resistance rRNA methylase B and oxazolidinone phenicol transferable resistance gene assessed as inhibition of visible growth of bacteria incubated for 20 hrs by broth microdilution method; format: functional
Staphylococcus aureus [3] = assay: Bactericidal activity against Staphylococcus aureus ATCC 29213 assessed as log reduction in bacterial number at 4 times of MIC measured after 24 hrs by time-kill kinetics assay; format: functional
Enterococcus faecalis [4] = assay: microbe, parasite or virus in culture; format: functional; details: SF23-1, time 20 hrs
Description: Antimicrobial activity against Enterococcus faecalis SF23-1 harboring erythromycin-resistance rRNA methylase B, tetracycline efflux protein L and chloramphenicol-florfenicol resistance methylase assessed as inhibition of visible growth of bacteria incubated for 20 hrs by broth microdilution method

[5] = Hemolytic activity in Kunming mouse erythrocytes assessed as hemolysis at 8 times of MIC measured after 1 hrs by absorbance based assay relative to control; format: toxicity, cell-based, Erythrocyte; details: read-out: Activity
[6] = Hemolytic activity in Kunming mouse erythrocytes measured after 1 hrs by absorbance based assay; format: toxicity, cell-based, Erythrocyte
[7] = Cytotoxicity against human Caco-2 cells assessed as cell viability at 8 times of MIC incubated for 48 hrs by CCK8 assay (reference value: 99.54 %); format: toxicity, cell-based; details: read-out: Activity
Staphylococcus aureus [8] = assay: Bactericidal activity against Staphylococcus aureus ATCC 29213 assessed as decrease in bacterial number measured within 12 hrs by time-kill kinetics assay; format: functional, organism-based
Streptococcus pyogenes = assay: Antimicrobial activity against Streptococcus pyogenes DL02 harboring erythromycin-resistance rRNA methylase B assessed as inhibition of visible growth of bacteria incubated for 20 hrs by broth microdilution method; format: functional
[9] = Cytotoxicity against human Caco-2 cells assessed as cell viability at 1 time of MIC incubated for 48 hrs by CCK8 assay (reference value: 99.54 %); format: toxicity, cell-based; details: read-out: Activity
[10] = Cytotoxicity against human Caco-2 cells assessed as cell viability at 2 times of MIC incubated for 48 hrs by CCK8 assay (reference value: 99.54 %); format: toxicity, cell-based; details: read-out: Activity
Salmonella enteritidis = assay: Antimicrobial activity against Salmonella enteritis S1 assessed as inhibition of visible growth of bacteria incubated for 20 hrs by broth microdilution method; format: functional, Salmonella enterica subsp. enterica serovar Enteritidis; details: Salmonella enterica
Staphylococcus aureus [11] = assay: microbe, parasite or virus in culture; format: functional; details: M147-2, time 20 hrs
Description: Antimicrobial activity against Staphylococcus aureus M147-2 harboring erythromycin resistance rRNA methylase B, tetracycline efflux protein L and chloramphenicol-florfenicol resistance methylase assessed as inhibition of visible growth of bacteria incubated for 20 hrs by broth microdilution method

Staphylococcus aureus [12] = assay: Antimicrobial activity against Staphylococcus aureus YZSA-15 harboring erythromycin resistance rRNA methylase C and vancomycin resistance locus assessed as inhibition of visible growth of bacteria incubated for 20 hrs by broth microdilution method; format: functional
Staphylococcus aureus [13] = assay: microbe, parasite or virus in culture; format: functional; details: M92-1, time 20 hrs
Description: Antimicrobial activity against Staphylococcus aureus M92-1 harboring erythromycin resistance rRNA methylase B, tetracycline efflux protein L and oxazolidinone-phenicol transferable resistance gene assessed as inhibition of visible growth of bacteria incubated for 20 hrs by broth microdilution method

Signal peptidase I = Signal peptidase I (Escherichia coli K-12, UniProt P00803); assay: Binding affinity to recombinant 6His-tagged Escherichia coli LepB (77 to 324 residues) extracted from Escherichia coli BL21 (DE3) cells assessed as dissociation constant by MST analysis
Klebsiella pneumoniae = assay: Antimicrobial activity against Klebsiella pneumoniae 9-1 assessed as inhibition of visible growth of bacteria incubated for 20 hrs by broth microdilution method; format: functional
Acinetobacter baumannii [14] = assay: Antimicrobial activity against Acinetobacter baumannii AB11 assessed as inhibition of visible growth of bacteria incubated for 20 hrs by broth microdilution method; format: functional
Staphylococcus aureus [15] = assay: Drug resistance, ratio of MIC for Staphylococcus aureus ATCC 29213 measured after 28 days to MIC for Staphylococcus aureus ATCC 29213 measured after 20 hrs; format: functional
[16] = Cytotoxicity against human HEp-2 cells assessed as cell viability at 1 time of MIC incubated for 48 hrs by CCK8 assay (reference value: 100 %); format: toxicity, cell-based; details: read-out: Activity
[17] = Cytotoxicity against human Caco-2 cells assessed as cell viability at 4 times of MIC incubated for 48 hrs by CCK8 assay (reference value: 99.54 %); format: toxicity, cell-based; details: read-out: Activity
Enterococcus faecium [18] = assay: Antimicrobial activity against Enterococcus faecium MC38 harboring erythromycin resistance rRNA methylase B and oxazolidinone-phenicol transferable resistance gene assessed as inhibition of visible growth of bacteria incubated for 20 hrs by broth microdilution method; format: functional
Pseudomonas aeruginosa [19] = assay: Antimicrobial activity against Pseudomonas aeruginosa PA14 assessed as inhibition of visible growth of bacteria incubated for 20 hrs by broth microdilution method; format: functional
Enterococcus faecium [20] = assay: Antimicrobial activity against Enterococcus faecium QF31 harboring erythromycin resistance rRNA methylase B and chloramphenicol-florfenicol resistance methylase assessed as inhibition of visible growth of bacteria incubated for 20 hrs by broth microdilution method; format: functional
Enterococcus faecalis [21] = assay: Antimicrobial activity against Enterococcus faecalis ES01 harboring erythromycin-resistance rRNA methylase B and vanB-type vancomycin-resistance locus assessed as inhibition of visible growth of bacteria incubated for 20 hrs by broth microdilution method; format: functional
Staphylococcus aureus [22] = assay: Antimicrobial activity against Staphylococcus aureus ATCC 29213 assessed as inhibition of visible growth of bacteria incubated for 20 hrs by broth microdilution method; format: functional
[23] = Cytotoxicity against human HEp-2 cells assessed as cell viability at 4 times of MIC incubated for 48 hrs by CCK8 assay (reference value: 100 %); format: toxicity, cell-based; details: read-out: Activity
Staphylococcus aureus [24] = assay: Antimicrobial activity against Staphylococcus aureus YZSA-24 harboring erythromycin resistance rRNA methylase C and methicillin resistance gene resistance locus assessed as inhibition of visible growth of bacteria incubated for 20 hrs by broth microdilution method; format: functional
Staphylococcus aureus [25] = assay: Bactericidal activity against Staphylococcus aureus ATCC 29213 assessed as bacterial killing at 8 times of MIC measured within 12 hrs by time-kill kinetics assay; format: functional, organism-based
Streptococcus suis [26] = assay: Antimicrobial activity against Streptococcus suis P1/7 assessed as inhibition of visible growth of bacteria incubated for 20 hrs by broth microdilution method; format: functional
Pseudomonas aeruginosa [27] = assay: Antimicrobial activity against Pseudomonas aeruginosa PA01 assessed as inhibition of visible growth of bacteria incubated for 20 hrs by broth microdilution method; format: functional
[28] = Hemolytic activity in Kunming mouse erythrocytes assessed as hemolysis at 1 time of MIC measured after 1 hrs by absorbance based assay relative to control; format: toxicity, cell-based, Erythrocyte; details: read-out: Activity
[29] = Hemolytic activity in Kunming mouse erythrocytes assessed as hemolysis at 16 times of MIC measured after 1 hrs by absorbance based assay relative to control; format: toxicity, cell-based, Erythrocyte; details: read-out: Activity
[30] = Hemolytic activity in Kunming mouse erythrocytes assessed as hemolysis at 4 times of MIC measured after 1 hrs by absorbance based assay relative to control; format: toxicity, cell-based, Erythrocyte; details: read-out: Activity
[31] = Cytotoxicity against human HEp-2 cells assessed as cell viability at 2 times of MIC incubated for 48 hrs by CCK8 assay (reference value: 100 %); format: toxicity, cell-based; details: read-out: Activity
[32] = Cytotoxicity against human Caco-2 cells assessed as cell viability at 16 times of MIC incubated for 48 hrs by CCK8 assay (reference value: 99.54 %); format: toxicity, cell-based; details: read-out: Activity
[33] = Cytotoxicity against human HEp-2 cells assessed as cell viability at 8 times of MIC incubated for 48 hrs by CCK8 assay (reference value: 100 %); format: toxicity, cell-based; details: read-out: Activity
Enterococcus faecium [34] = assay: Antimicrobial activity against Enterococcus faecium HFY01 assessed as inhibition of visible growth of bacteria incubated for 20 hrs by broth microdilution method; format: functional
Streptococcus suis [35] = assay: microbe, parasite or virus in culture; format: functional; details: SH0918, time 20 hrs
Description: Antimicrobial activity against Streptococcus suis SH0918 harboring erythromycin-resistance rRNA methylase B, tetracycline efflux protein O and oxazolidinone phenicol transferable resistance gene assessed as inhibition of visible growth of bacteria incubated for 20 hrs by broth microdilution method

[36] = Cytotoxicity against human HEp-2 cells assessed as cell viability at 16 times of MIC incubated for 48 hrs by CCK8 assay (reference value: 100 %); format: toxicity, cell-based; details: read-out: Activity
Escherichia coli = assay: Antimicrobial activity against Escherichia coli ATCC 25922 assessed as inhibition of visible growth of bacteria incubated for 20 hrs by broth microdilution method; format: functional
Staphylococcus aureus [37] = assay: Antimicrobial activity against Staphylococcus aureus YZSA-21 harboring erythromycin resistance rRNA methylase C assessed as inhibition of visible growth of bacteria incubated for 20 hrs by broth microdilution method; format: functional
[38] = Hemolytic activity in Kunming mouse erythrocytes assessed as hemolysis at 2 times of MIC measured after 1 hrs by absorbance based assay relative to control; format: toxicity, cell-based, Erythrocyte; details: read-out: Activity
Acinetobacter baumannii [39] = assay: Antimicrobial activity against Acinetobacter baumannii 7979 assessed as inhibition of visible growth of bacteria incubated for 20 hrs by broth microdilution method; format: functional
Streptococcus agalactiae = assay: Antimicrobial activity against Streptococcus agalactiae DL03 harboring erythromycin-resistance rRNA methylase B assessed as inhibition of visible growth of bacteria incubated for 20 hrs by broth microdilution method; format: functional
Staphylococcus aureus [40] = assay: Antibacterial activity against methicillin-resistant Staphylococcus aureus YZSA-24 infected in cyclophosphamide-induced neutrophil depleted female ICR mouse model of skin infection assessed as log reduction in bacterial load at 1 %, TOP preadministered with cyclophosphamide for 5 days followed by bacterial administration and measured after 25 hrs of compound administration relative to vehicle group; format: functional

Sequence of Signal peptidase I (P00803 whole entry, the tested form may be a part): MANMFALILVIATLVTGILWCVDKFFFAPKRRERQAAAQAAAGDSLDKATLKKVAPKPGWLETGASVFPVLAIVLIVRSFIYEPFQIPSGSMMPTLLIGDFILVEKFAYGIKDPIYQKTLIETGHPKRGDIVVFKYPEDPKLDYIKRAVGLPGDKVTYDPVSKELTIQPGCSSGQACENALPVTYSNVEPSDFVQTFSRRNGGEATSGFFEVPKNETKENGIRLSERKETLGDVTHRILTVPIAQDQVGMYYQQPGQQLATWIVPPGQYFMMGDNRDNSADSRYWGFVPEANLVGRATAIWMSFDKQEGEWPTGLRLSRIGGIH

**Q.** Which results are given for `CCCCCCc1ccc(-c2ccc(/C=C3\CC(C)Cc4c3nc3ccc(OC)cc3c4C(=O)O)cn2)cc1` (racemic)?
**A.** MIC (Enterococcus faecalis [1]): 8 µg/mL (≈ 15.4 µM); MIC (Enterococcus faecalis [2]): 4 µg/mL (≈ 7.68 µM); Activity (Staphylococcus aureus [3]): 2.6 log10CFU/ml; MIC (Enterococcus faecalis [4]): 8 µg/mL (≈ 15.4 µM); hemolysis at 1 h, 8 times of MIC [5]: 55.8%; HC50 at 1 h [6]: 34.8 µg/mL; viability at 48 h, 8 times of MIC [7]: 17.8%; Activity (Staphylococcus aureus [8]): Dose-dependent-effect; MIC (Streptococcus pyogenes): 16 µg/mL (≈ 30.7 µM); viability at 48 h, 1 time of MIC [9]: 99.7%; viability at 48 h, 2 times of MIC [10]: 73.5%; MIC (Salmonella enteritidis): > 128 µg/mL; MIC (Staphylococcus aureus [11]): 4 µg/mL (≈ 7.68 µM); MIC (Staphylococcus aureus [12]): 4 µg/mL (≈ 7.68 µM); MIC (Staphylococcus aureus [13]): 4 µg/mL (≈ 7.68 µM); Kd (Signal peptidase I): 20.9 µM; MIC (Klebsiella pneumoniae): > 128 µg/mL; MIC (Acinetobacter baumannii [14]): > 128 µg/mL; Ratio (Staphylococcus aureus [15]): 4; viability at 48 h, 1 time of MIC [16]: 101%; viability at 48 h, 4 times of MIC [17]: 49.7%; MIC (Enterococcus faecium [18]): 4 µg/mL (≈ 7.68 µM); MIC (Pseudomonas aeruginosa [19]): > 128 µg/mL; MIC (Enterococcus faecium [20]): 4 µg/mL (≈ 7.68 µM); MIC (Enterococcus faecalis [21]): 4 µg/mL (≈ 7.68 µM); MIC (Staphylococcus aureus [22]): 4 µg/mL (≈ 7.68 µM); viability at 48 h, 4 times of MIC [23]: 64%; MIC (Staphylococcus aureus [24]): 4 µg/mL (≈ 7.68 µM); Activity (Staphylococcus aureus [25]): Active; MIC (Streptococcus suis [26]): 32 µg/mL (≈ 61.5 µM); MIC (Pseudomonas aeruginosa [27]): > 128 µg/mL; hemolysis at 1 h, 1 time of MIC [28]: 0%; hemolysis at 1 h, 16 times of MIC [29]: 72.5%; hemolysis at 1 h, 4 times of MIC [30]: 0.98%; viability at 48 h, 2 times of MIC [31]: 94.1%; viability at 48 h, 16 times of MIC [32]: 1.44%; viability at 48 h, 8 times of MIC [33]: 39%; MIC (Enterococcus faecium [34]): 4 µg/mL (≈ 7.68 µM); MIC (Streptococcus suis [35]): 32 µg/mL (≈ 61.5 µM); viability at 48 h, 16 times of MIC [36]: 1.91%; MIC (Escherichia coli): > 128 µg/mL; MIC (Staphylococcus aureus [37]): 4 µg/mL (≈ 7.68 µM); hemolysis at 1 h, 2 times of MIC [38]: 0.33%; MIC (Acinetobacter baumannii [39]): > 128 µg/mL; MIC (Streptococcus agalactiae): 8 µg/mL (≈ 15.4 µM)

**Q.** Which MIC (Enterococcus faecalis [1]) does the source give for `CC(=O)NC[C@H]1CN(c2ccc(N3CCOCC3)c(F)c2)C(=O)O1` [LINEZOLID] here?
**A.** 0.5 µg/mL (≈ 1.48 µM)

**Q.** And the MIC (Streptococcus pyogenes)?
**A.** < 0.06 µg/mL

**Q.** And the Activity (Staphylococcus aureus [40])?
**A.** 4.05 log10CFU/ml

**Q.** And the MIC (Staphylococcus aureus [11])?
**A.** 8 µg/mL (≈ 23.7 µM)

**Q.** And the MIC (Staphylococcus aureus [12])?
**A.** 0.5 µg/mL (≈ 1.48 µM)

**Q.** And the MIC (Staphylococcus aureus [13])?
**A.** 8 µg/mL (≈ 23.7 µM)

**Q.** What about the MIC (Enterococcus faecium [18]) of the same compound?
**A.** 2 µg/mL (≈ 5.93 µM)

**Q.** And the MIC (Enterococcus faecium [20])?
**A.** 2 µg/mL (≈ 5.93 µM)

**Q.** What about the MIC (Staphylococcus aureus [22]) of the same compound?
**A.** 1 µg/mL (≈ 2.96 µM)

**Q.** What about the MIC (Staphylococcus aureus [24]) of the same compound?
**A.** 0.5 µg/mL (≈ 1.48 µM)

**Q.** What about the MIC (Streptococcus suis [26]) of the same compound?
**A.** 0.125 µg/mL (≈ 0.371 µM)

**Q.** What about the MIC (Enterococcus faecium [34]) of the same compound?
**A.** 2 µg/mL (≈ 5.93 µM)

**Q.** And the MIC (Streptococcus suis [35])?
**A.** 8 µg/mL (≈ 23.7 µM)

**Q.** What about the MIC (Staphylococcus aureus [37]) of the same compound?
**A.** 1 µg/mL (≈ 2.96 µM)

**Q.** What about the MIC (Streptococcus agalactiae) of the same compound?
**A.** 1 µg/mL (≈ 2.96 µM)
